The supplement of paper PMC10307832

How the values were obtained:
Assay in all cases: relative viability (nuclei count vs DMSO), 5 days (fraction); higher = more cells survive
NCI-H1650 = system: NCI-H1650
In short: (§1)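 Cells from lung cancer lines were seeded into 1536-well plates and, one day later, dosed by pin tool. Treatments were either a single drug or a fixed dose of an anchor drug with five library-drug doses (not always all listed) in √10 steps. After 5 days, nuclei were stained in a one-step fixation (final 0.05% Triton X-100, 1% formaldehyde, 1 ug/ml Hoechst) and counted on 4× images, and relative viability is the treated-to-vehicle nuclei ratio, as the median of duplicate plates.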

NCI-H1944 = system: NCI-H1944
In short: as §1

NCI-H1651 = system: NCI-H1651
In short: as §1

LC-2-ad = system: LC-2-ad
In short: as §1

NCI-H596 = system: NCI-H596
In short: as §1

H3255 = system: H3255
In short: as §1

NCI-H2087 = system: NCI-H2087
In short: as §1

ABC-1 = system: ABC-1
In short: as §1

A-427 = system: A-427
In short: as §1

NCI-H441 = system: NCI-H441
In short: as §1

201T = system: 201T
In short: as §1

## Cc1sc2c(c1C)C(c1ccc(Cl)cc1)=N[C@@H](CC(=O)OC(C)(C)C)c1nnc(C)n1-2 [JQ1] + CCNC(=O)c1noc(-c2cc(C(C)C)c(O)cc2O)c1-c1ccc(CN2CCOCC2)cc1 [Luminespib] (partner 0.01 µM)
NCI-H1650; first compound 0.04 µM
  relative viability: 0.21
NCI-H1650; first compound 0.1265 µM
  relative viability: 0.199
NCI-H1650; first compound 0.4 µM
  relative viability: 0.167
NCI-H1650; first compound 1.265 µM
  relative viability: 0.161
NCI-H1650; first compound 4 µM
  relative viability: 0.206
NCI-H1944; first compound 0.04 µM
  relative viability: 0.73
NCI-H1944; first compound 0.1265 µM
  relative viability: 0.632
NCI-H1944; first compound 0.4 µM
  relative viability: 0.451
NCI-H1944; first compound 1.265 µM
  relative viability: 0.37
NCI-H1944; first compound 4 µM
  relative viability: 0.353
NCI-H1651; first compound 0.04 µM
  relative viability: 0.865
NCI-H1651; first compound 0.1265 µM
  relative viability: 0.997
NCI-H1651; first compound 0.4 µM
  relative viability: 0.768
NCI-H1651; first compound 1.265 µM
  relative viability: 0.369
NCI-H1651; first compound 4 µM
  relative viability: 0.375
LC-2-ad; first compound 0.04 µM
  relative viability: 0.892
LC-2-ad; first compound 0.1265 µM
  relative viability: 0.58
LC-2-ad; first compound 0.4 µM
  relative viability: 0.576
LC-2-ad; first compound 1.265 µM
  relative viability: 0.395
LC-2-ad; first compound 4 µM
  relative viability: 0.331
NCI-H596; first compound 0.04 µM
  relative viability: 1.09
NCI-H596; first compound 0.1265 µM
  relative viability: 0.769
NCI-H596; first compound 0.4 µM
  relative viability: 0.495
NCI-H596; first compound 1.265 µM
  relative viability: 0.344
NCI-H596; first compound 4 µM
  relative viability: 0.287
H3255; first compound 0.04 µM
  relative viability: 0.904
H3255; first compound 0.1265 µM
  relative viability: 0.699
H3255; first compound 0.4 µM
  relative viability: 1.01
H3255; first compound 1.265 µM
  relative viability: 0.768
H3255; first compound 4 µM
  relative viability: 0.416
NCI-H2087; first compound 0.04 µM
  relative viability: 0.122
NCI-H2087; first compound 0.1265 µM
  relative viability: 0.171
NCI-H2087; first compound 0.4 µM
  relative viability: 0.173
NCI-H2087; first compound 1.265 µM
  relative viability: 0.129
NCI-H2087; first compound 4 µM
  relative viability: 0.178
ABC-1; first compound 0.04 µM
  relative viability: 0.612
ABC-1; first compound 0.1265 µM
  relative viability: 0.286
ABC-1; first compound 0.4 µM
  relative viability: 0.479
ABC-1; first compound 1.265 µM
  relative viability: 0.192
ABC-1; first compound 4 µM
  relative viability: 0.267
A-427; first compound 0.04 µM
  relative viability: 0.795
A-427; first compound 0.1265 µM
  relative viability: 0.97
A-427; first compound 0.4 µM
  relative viability: 0.847
A-427; first compound 1.265 µM
  relative viability: 0.563
A-427; first compound 4 µM
  relative viability: 0.431
NCI-H441; first compound 0.04 µM
  relative viability: 0.37
NCI-H441; first compound 0.1265 µM
  relative viability: 0.501
NCI-H441; first compound 0.4 µM
  relative viability: 0.419
NCI-H441; first compound 1.265 µM
  relative viability: 0.253
NCI-H441; first compound 4 µM
  relative viability: 0.235
201T; first compound 0.04 µM
  relative viability: 1.06
201T; first compound 0.1265 µM
  relative viability: 0.77
201T; first compound 0.4 µM
  relative viability: 0.745
201T; first compound 1.265 µM
  relative viability: 0.753
201T; first compound 4 µM
  relative viability: 0.522
